How the values were obtained:
E. coli = assay: Bacteriocidal time study, 200 ppm gNO, saline suspension; format: cell-based
Procedure: (§1) Following the dose and time ranging studies, a series of experiments were performed to determine the time required to effectively induce a bacteriocidal effect with 200 parts per million of gNO, a concentration just above the dose used in the dose-ranging study, on a representative collection of drug resistant gram-positive and gram-negative strains of bacteria associated with clinical infection. A successful bacteriocidal effect was defined as a decrease in bacteria greater than 3 log10 cfu/ml. Further, C. albicans, Methicillin Resistant S. aureus (MRSA), a particularly resistant strain of P. aeruginosa from a cystic fibrosis patient, Group B Streptococcus, and M. smegmatis were also included to see if yeast, multi-drug resistant strains of bacteria, and actinomycetes have a similar response. The drug-resistant bacteria represent a variety of pathogens that contribute to both respiratory and wound infections.
(§2) For these experiments, saline was selected as a suspension media because it would not mask the direct effect of gNO as a bacteriocidal, whereas fully supplemented growth medium might introduce external variables (e.g., buffer or react with gNO). Other media might also provide metabolites and replenish nutrients that produce enzymes that protect bacteria from oxidative and nitrosative damage, thereby masking the effect of gNO. […] In saline, the colonies were static but remained viable. This is similar to the approach of Webert and Jean's use of animal models. Webert K E, et al (2000), Effects of inhaled nitric oxide in a rat model of Pseudomonas aeruginosa pneumonia, Crit. Care Med, 28(7):2397-2405 and Jean D, et al., (2002) Beneficial effects of nitric oxide inhalation on pulmonary bacterial clearance, Critical Care Medicine. 30(2):442-7.
(§3) The latent period was then followed by an abrupt death of all cells. Gram negative and gram positive bacteria, antibiotic resistant bacterial strains, yeast and mycobacteria were all susceptible to 200 ppm gNO. Of importance, is the observation that the two drug resistant bacteria strains were also susceptible.

S. aureus (ATCC) = assay: as above; format: cell-based
Procedure: as §1, §2, §3

Kiebsiella sp. #2 = assay: as above; format: cell-based
Procedure: as §1, §2, §3

Klebsiella sp. #3 = assay: as above; format: cell-based
Procedure: as §1, §2, §3

Serracia sp. = assay: as above; format: cell-based
Procedure: as §1, §2, §3

S. aureus (Clinical) = assay: as above; format: cell-based
Procedure: as §1, §2, §3

S. maltophilia = assay: as above; format: cell-based
Procedure: as §1, §2, §3

Acinetobacter sp. = assay: as above; format: cell-based
Procedure: as §1, §2, §3

Enterobacter sp. = assay: as above; format: cell-based
Procedure: as §1, §2, §3

P. aeruginosa (ATCC) = assay: as above; format: cell-based
Procedure: as §1, §2, §3

Fibroblast cells = assay: Fibroblast viability study in gNO chamber; format: cell-based, human
Procedure: Fibroblast cells obtained from adult patients undergoing elective reconstructive surgery were cultured in Dulbeco's Modified Eagle's Medium (DMEM), supplemented with 10% fetal bovine serum (FBS) and antibiotic-antimycotic preparation and divided into ten 25 cm^2 vented culture flasks (COSTAR). […] The NO exposure chamber was validated prior to the study to eliminate extraneous variables and ensure optimal conditions for fibroblast cell growth. Another four flasks (control group) were placed inside conventional culture incubator and exposed only to ambient humidified air at 37° C. Two flasks were separately harvested and counted as the number of cells at zero time. Following the treatment, fibroblast cells were harvested and evaluated for morphology, cell count, capacity to proliferate and medium pH.
Cells under gNO appeared healthy and attached to the culture plates.
Capability of cells to reattach to the culture plates within a specified time limit is commonly used as an indication of viability of cells in culture. Both the control and treated groups show a 70% attachment capacity within 1 hour of culturing.

P. aeruginosa = assay: gNO dose study, colony growth on agar plates; format: cell-based
Procedure: FIG. 7 depicts a Pseudomonas aeruginosa dosage curve for exposure to NO gas with bacteria grown on solid media. Relative percentages of growth of P. aeruginosa colony forming units (cfu) at 50, 80, 120 and 160 parts per million (ppm) of nitric oxide compared with growth of P. aeruginosa cfu in medical air (100%) are shown.
To study the effects of gaseous nitric oxide on potential pathogens, a custom gas exposure incubator was designed and validated for temperature, humidity, and gas concentrations, providing an environment that matches that of a microbiologic incubator, while enabling controlled exposure of precise concentrations of the gas. […] The gNO chamber allowed control and adjustment of following factors in all in vitro studies: gNO dose, total air flow, NO2 levels, O2 levels, CO2 levels, temperature, and humidity. For the initial pilot studies, two strains of bacterial pathogen were selected based on two proposed clinical applications of gNO for respiratory infections and topical application. P. aeruginosa is associated primarily with pulmonary disease, but may also be associated with skin infection such as in severe burns. S. aureus is associated with surface wound infections. Both of these micro-organisms were chosen for the pilot study.
The first step in the process of evaluating the direct effect of gNO on bacteria was to design a simple study to determine what dose, if any, would be an approximate lethal concentration level for microbes. Once an optimal dose was estimated, then a timing study would be conducted. For these initial studies, highly dense inoculums of P. aeruginosa and S. aureus suspensions (10^8 cfu/ml) were plated onto agar plates. These plates were then exposed to various concentrations of gNO in the exposure device in order to evaluate the effect on colony growth.

[N]=O [gNO, nitric oxide]
LD100 (E. coli): 5 h
Latent Period* (E. coli): 3 h
−2.5 Log10 (E. coli; time to −2.5 log10 cfu/ml): 4.2 hrs
LD100 (S. aureus (ATCC)): 4 h
Latent Period* (S. aureus (ATCC)): 3 h
−2.5 Log10 (S. aureus (ATCC); time to −2.5 log10 cfu/ml): 3.3 hrs
LD100 (Kiebsiella sp. #2): 5 h
Latent Period* (Kiebsiella sp. #2): 2 h
−2.5 Log10 (Kiebsiella sp. #2; time to −2.5 log10 cfu/ml): 4.1 hrs
LD100 (Klebsiella sp. #3): 6 h
Latent Period* (Klebsiella sp. #3): 3 h
−2.5 Log10 (Klebsiella sp. #3; time to −2.5 log10 cfu/ml): 5.1 hrs
LD100 (Serracia sp.): 6 h
Latent Period* (Serracia sp.): 4 h
−2.5 Log10 (Serracia sp.; time to −2.5 log10 cfu/ml): 4.9 hrs
LD100 (S. aureus (Clinical)): 4 h
Latent Period* (S. aureus (Clinical)): 3 h
−2.5 Log10 (S. aureus (Clinical); time to −2.5 log10 cfu/ml): 3.7 hrs
LD100 (S. maltophilia): 4 h
Latent Period* (S. maltophilia): 2 h
−2.5 Log10 (S. maltophilia; time to −2.5 log10 cfu/ml): 2.8 hrs
LD100 (Acinetobacter sp.): 6 h
Latent Period* (Acinetobacter sp.): 4 h
−2.5 Log10 (Acinetobacter sp.; time to −2.5 log10 cfu/ml): 5 hrs
LD100 (Enterobacter sp.): 6 h
Latent Period* (Enterobacter sp.): 4 h
−2.5 Log10 (Enterobacter sp.; time to −2.5 log10 cfu/ml): 5.3 hrs
LD100 (P. aeruginosa (ATCC)): 3 h
Latent Period* (P. aeruginosa (ATCC)): 1 h
−2.5 Log10 (P. aeruginosa (ATCC); time to −2.5 log10 cfu/ml): 2.1 hrs
attachment capacity (Fibroblast cells; 160 ppm gNO, within 1 hour of culturing, control the same): 70%
proliferation of fibroblast cells (Fibroblast cells; 200 ppm NO, compared with control): positive effect of increasing proliferation
harmful effects on the fibroblast (Fibroblast cells; around 200 ppm gNO, 24 and 48 hours): did not have harmful effects
toxic effect, morphology and attachment (Fibroblast cells; gNO concentrations less than 200 ppm continuously for 48 hours): No toxic effect
colony size and number after transfer to a conventional incubator (P. aeruginosa; 24 hours after gNO exposure, controls overgrew): remained the same in size and number
time required to achieve the >90% reduction of colony formation (P. aeruginosa; gNO greater than 120 ppm, agar plates): 8 to 12 h
reduction of colony formation (P. aeruginosa; gNO greater than 120 ppm, agar plates, compared with medical air): greater than 90%
survival (P. aeruginosa; increasing gNO to 120 ppm, agar plates): 5-10%

Source: patent publication US8795222B2, “Device and method for treatment of surface infections with nitric oxide” (Pulmonox Technologies Corp., priority 2000, dated 2014)
